In the supplement of paper PMC10307832 one finds relative viability data, which are given here for four cell lines.

Holding throughout (test): relative viability (nuclei count vs DMSO), 5 days (fraction); higher = more cells survive
Compound in the test “Cediranib + Foretinib”: COc1cc2c(Oc3ccc4[nH]c(C)cc4c3F)ncnc2cc1OCCCN1CCCC1 [Cediranib] + COc1cc2c(Oc3ccc(NC(=O)C4(C(=O)Nc5ccc(F)cc5)CC4)cc3F)ccnc2cc1OCCCN1CCOCC1 [Foretinib] (partner 0.25 µM)
In short, it runs like this: (§1)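 Relative viability was taken as the ratio of nuclei in treated wells to nuclei in vehicle wells. Lung cancer cell lines in 1536-well plates received compounds by pin tool one day after seeding, either one drug alone or a fixed anchor-drug dose plus five library-drug doses (not always all listed) in √10 steps. Nuclei were counted on 4× images after 5 days of treatment, and values are medians of duplicate plates.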

Compound in the test “Decitabine + Alpelisib”: Nc1ncn([C@H]2C[C@H](O)[C@@H](CO)O2)c(=O)n1 [Decitabine] + Cc1nc(NC(=O)N2CCC[C@H]2C(N)=O)sc1-c1ccnc(C(C)(C)C(F)(F)F)c1 [Alpelisib] (partner 2 µM)
In short, it runs like this:
as §1

Compound in the test “Decitabine + Pemetrexed”: Nc1ncn([C@H]2C[C@H](O)[C@@H](CO)O2)c(=O)n1 [Decitabine] + Nc1nc2[nH]cc(CCc3ccc(C(=O)N[C@@H](CCC(=O)O)C(=O)O)cc3)c2c(=O)[nH]1 [Pemetrexed] (partner 0.2 µM)
In short, it runs like this:
as §1

Compound in the test “Halofuginone + Lapatinib”: O=C(C[C@H]1NCCC[C@@H]1O)Cn1cnc2cc(Br)c(Cl)cc2c1=O (racemic) [Halofuginone] + CS(=O)(=O)CCNCc1ccc(-c2ccc3ncnc(Nc4ccc(OCc5cccc(F)c5)c(Cl)c4)c3c2)o1 [Lapatinib] (partner 2 µM)
In short, it runs like this: as §1

With NCI-H1755, the relative viability with Cediranib + Foretinib (first compound 0.04 µM) is 0.97; with Cediranib + Foretinib (first compound 0.1265 µM), 0.941; with Cediranib + Foretinib (first compound 0.4 µM), 0.903; with Cediranib + Foretinib (first compound 1.265 µM) it was 0.944; with Cediranib + Foretinib (first compound 4 µM), 0.908; with Decitabine + Alpelisib (first compound 0.04 µM), 0.847. The relative viability with Decitabine + Alpelisib (first compound 0.1265 µM) turned out to be 0.858; in the test with Decitabine + Alpelisib (first compound 0.4 µM), 0.825; in the test with Decitabine + Alpelisib (first compound 1.265 µM) it was 0.511; with Decitabine + Alpelisib (first compound 4 µM), 0.348; in the test with Decitabine + Pemetrexed (first compound 0.04 µM), 0.477; in the test with Decitabine + Pemetrexed (first compound 0.1265 µM), 0.376. In addition, the relative viability in the test with Decitabine + Pemetrexed (first compound 0.4 µM) stood at 0.406; in the test with Decitabine + Pemetrexed (first compound 1.265 µM), 0.419; in the test with Decitabine + Pemetrexed (first compound 4 µM), 0.365; in the test with Halofuginone + Lapatinib (first compound 0.001 µM), 0.993; with Halofuginone + Lapatinib (first compound 0.003162 µM), 0.992; in the test with Halofuginone + Lapatinib (first compound 0.01 µM), 0.992. Besides, the relative viability amounted to 1.04 with Halofuginone + Lapatinib (first compound 0.03162 µM) and 0.997 in the test with Halofuginone + Lapatinib (first compound 0.1 µM).
PC-14: the relative viability turned out to be 1.04 with Cediranib + Foretinib (first compound 0.04 µM); 1.08 with Cediranib + Foretinib (first compound 0.1265 µM); 0.861 with Cediranib + Foretinib (first compound 0.4 µM); 0.997 in the test with Cediranib + Foretinib (first compound 1.265 µM); 0.928 with Cediranib + Foretinib (first compound 4 µM); 0.623 in the test with Decitabine + Alpelisib (first compound 0.04 µM). Also, the relative viability with Decitabine + Alpelisib (first compound 0.1265 µM) is 0.723; with Decitabine + Alpelisib (first compound 0.4 µM) it was 0.411; in the test with Decitabine + Alpelisib (first compound 1.265 µM), 0.196; in the test with Decitabine + Alpelisib (first compound 4 µM) it was 0.18; in the test with Decitabine + Pemetrexed (first compound 0.04 µM) it was 0.123; with Decitabine + Pemetrexed (first compound 0.1265 µM) it was 0.0812. For the same cell line, the relative viability with Decitabine + Pemetrexed (first compound 0.4 µM) worked out at 0.0659; in the test with Decitabine + Pemetrexed (first compound 1.265 µM) it was 0.0902; with Decitabine + Pemetrexed (first compound 4 µM), 0.0856; with Halofuginone + Lapatinib (first compound 0.001 µM), 0.325; in the test with Halofuginone + Lapatinib (first compound 0.003162 µM), 0.311; in the test with Halofuginone + Lapatinib (first compound 0.01 µM), 0.343. The relative viability with Halofuginone + Lapatinib (first compound 0.03162 µM) worked out at 0.419; with Halofuginone + Lapatinib (first compound 0.1 µM) it was 0.313.
As for NCI-H322M, the relative viability came out at 1.15 with Cediranib + Foretinib (first compound 0.04 µM); 1.04 in the test with Cediranib + Foretinib (first compound 0.1265 µM); 0.946 with Cediranib + Foretinib (first compound 0.4 µM); 0.912 in the test with Cediranib + Foretinib (first compound 1.265 µM); 0.922 with Cediranib + Foretinib (first compound 4 µM); 0.659 with Decitabine + Alpelisib (first compound 0.04 µM). Also, the relative viability with Decitabine + Alpelisib (first compound 0.1265 µM) was 0.613; in the test with Decitabine + Alpelisib (first compound 0.4 µM) it was 0.71; with Decitabine + Alpelisib (first compound 1.265 µM), 0.498; with Decitabine + Alpelisib (first compound 4 µM), 0.403; in the test with Decitabine + Pemetrexed (first compound 0.04 µM), 0.549; in the test with Decitabine + Pemetrexed (first compound 0.1265 µM), 0.602. For the same cell line, the relative viability with Decitabine + Pemetrexed (first compound 0.4 µM) turned out to be 0.534; with Decitabine + Pemetrexed (first compound 1.265 µM), 0.709; in the test with Decitabine + Pemetrexed (first compound 4 µM) it was 0.53; in the test with Halofuginone + Lapatinib (first compound 0.001 µM), 0.47; in the test with Halofuginone + Lapatinib (first compound 0.003162 µM), 0.583; with Halofuginone + Lapatinib (first compound 0.01 µM), 0.585. In addition, the relative viability worked out at 0.607 with Halofuginone + Lapatinib (first compound 0.03162 µM) and 0.493 with Halofuginone + Lapatinib (first compound 0.1 µM).
With NCI-H1666, the relative viability worked out at 0.972 with Cediranib + Foretinib (first compound 0.04 µM); 1.01 with Cediranib + Foretinib (first compound 0.1265 µM); 0.916 in the test with Cediranib + Foretinib (first compound 0.4 µM); 0.945 in the test with Cediranib + Foretinib (first compound 1.265 µM); 1 with Cediranib + Foretinib (first compound 4 µM); 0.797 in the test with Decitabine + Alpelisib (first compound 0.04 µM). Moreover, the relative viability with Decitabine + Alpelisib (first compound 0.1265 µM) stood at 0.753; with Decitabine + Alpelisib (first compound 0.4 µM) it was 0.606; with Decitabine + Alpelisib (first compound 1.265 µM), 0.489; with Decitabine + Alpelisib (first compound 4 µM), 0.473; with Decitabine + Pemetrexed (first compound 0.04 µM) it was 0.874; with Decitabine + Pemetrexed (first compound 0.1265 µM) it was 0.79. Also, the relative viability with Decitabine + Pemetrexed (first compound 0.4 µM) amounted to 0.712; with Decitabine + Pemetrexed (first compound 1.265 µM), 0.641; in the test with Decitabine + Pemetrexed (first compound 4 µM), 0.504; in the test with Halofuginone + Lapatinib (first compound 0.001 µM) it was 0.685; with Halofuginone + Lapatinib (first compound 0.003162 µM) it was 0.826; in the test with Halofuginone + Lapatinib (first compound 0.01 µM), 0.626. The relative viability came out at 0.67 in the test with Halofuginone + Lapatinib (first compound 0.03162 µM) and 0.458 in the test with Halofuginone + Lapatinib (first compound 0.1 µM).
